Tests used:
[1] = UV-Vis absorption spectra of trans and cis isomers (λstrong, εE, λiso); assay type: physicochemical; settings: PBS pH = 7.4, 20% MeCN
Experimental: A(λmeas, λirrad) is used to indicate the measured UV-Vis absorption spectrum in the range 340 nm<λmeas<650 nm, as a function of the irradiating wavelength λirrad once PSS(λirrad) has been established. UV-Vis measurement of A(λmeas, λirrad) was performed. It was considered that the PSS had been established when the absorbance profile ceased to alter under continued irradiation. An isosbestic point (wavelength λiso) was found for each compound by examining where the absorption A(λmeas) was invariant with respect to changing λirrad. A(λmeas, dark) was also acquired with samples that had been kept in the dark for at least several hours, and it was assumed that no significant spectral contribution from the cis isomer was present in these spectra. […]
HPLC (high-performance liquid chromatography) was then used as described in Part A to measure ε*E(λ) and ε*Z(λ) (the separated absorption profiles of trans and cis isomers respectively, in arbitrary units which are not intercomparable in an absolute sense). It was approximated that these spectra would be identical in shape if measured under the UV-Vis conditions, so once ε*E(λ) and ε*Z(λ) were scaled appropriately relative to each other, these scaled spectra could be used to deconvolute A(λmeas, λirrad). This approximation was considered useful especially in the regions of greatest spectral interest, ie. regions of relatively strong absorption (since only rather well-absorbed wavelengths will allow significant photoisomerisation under finite photon flux). To place the arbitrary-unit absorption spectra on an absolute scale, the maximal absorption wavelength λstrong of the trans-isomer was first selected by examining A(λmeas, dark): typically, λstrong≈380 nm. with Expressing A(λstrong, dark) in units M^−1cm^−1, ε*E(λstrong) was then scaled so that εE(λstrong)=A(λstrong, dark), giving:
εE(λ)=ε*E(λ)×[A(λstrong,dark)/ε*E(λstrong)]
and the isosbestic point was used to scale the cis-isomer spectrum as per:
εZ(λ)=ε*Z(λ)×[εE(λiso)/ε*Z(λiso)]
However, using A(λstrong, dark) was preferred, since A(λiso) was typically so much smaller that the standard deviation in the scaled absorptivities which it generated was far greater.
Absorption spectra in cuvette (“UV-Vis”) were acquired on a Varian CaryScan 50 (1 cm, 100 μL or 1 mL volume) with Peltier cell temperature control unit maintained at 37° C., in PBS at pH˜7.4 containing a low percentage of cosolvent if needed (typically 2% MeCN or 5% DMSO). A ThorLabs Polychrome V monochromator with a fibre optic cable output directed into the cuvette was used to perform photoisomerisation studies by UV-Vis spectrophotometry although single LEDs of approximately 10-20 mW output, 15-20° cone angle, and 10-15 nm bandwidth FWHM, obtained commercially from Roithner Lasertechnik GmbH, were equally successful in providing repeatable monochromatic photoisomerisation. Separated spectra of trans and […] forms were acquired from the inline Diode Array Detector on the AGILENT 1260 SL coupled LC-MS system after HPLC separation. Fluorescence spectrophotometry (excitation and emission spectra) were acquired on a Varian CaryEclipse fluorescence spectrophotometer.
By the above procedure, the trans- and cis-isomers of each species were separated by HPLC as described in Part A, and ε*E(λ) and ε*Z(λ) were measured on the inline ultraviolet/visible Diode Array Detector; these were then scaled as outlined above. The parameters λstrong, εE(λstrong) and λiso are tabulated for selected compounds below (Table 1).

[2] = thermal reversion halflife of spontaneous cis->trans isomerisation; assay type: physicochemical; settings: PBS pH = 7.4, 20% MeCN
Source text: Finally, trends in τ were ascertained by establishing the PSS at λstrong, then turning off the light source at time t0, and measuring A(λstrong, t) over time. Data were acquired for half an hour, or else the first three halflives (whichever was the shorter period), then fitted to the equation:
A(λstrong,t)=A(λstrong,dark)−[A(λstrong,dark)−A(λstrong,t0)]×e^−kt
This fit was used to return an in vitro halflife τ* for the cis->trans spontaneous thermal reversion isomerisation process, defined as τ=ln 2/k. It should be noted however, that azoaryl compounds' thermal reversion rates are known to depend strongly upon their microenvironment, such as pH and solvent/solvation effects^[7,38]. This was shown for compound (I.1), where a change of only 1.4 pH units gave a 25% change in τ*; note that different compounds are expected to respond very differently to changes in pH so no unifying trends are expected. Therefore the τ* acquired in vitro were considered appropriate only for qualitative intercomparison between samples (trend of τ* vs structure), rather than quantitative prediction of the τ values which might be experienced in cellulo or in vivo. Indeed, these in vitro τ* values appeared at least three times longer than what would have been expected based on in cellulo experiments where the pause time between activating pulses was varied.
Thermal reversion times were measured as described above. Those for selected compounds are presented below (Table 2).

HeLa cells = assay: cytotoxicity by crystal violet staining; assay type: cell-based; settings: 40 h
Experimental: Seven of the compounds according to the invention were selected for biological tests. Their cytotoxicity was assessed using crystal violet staining as adapted from standard procedure^[31]. Briefly, HeLa cells were seeded on 96-well plates, treated with the given concentrations of the selected compound, and exposed or not to the pulse protocol of illumination with light at 390 nm (pulses of 75 ms every 15 s). After 40 h cells were stained with crystal violet solution (0.5% crystal violet in 20% methanol) for 10 min. Unbound crystal violet was removed by rinsing with distilled water and cells were air-dried. Crystal violet was subsequently eluted from cells with 0.1 M sodium citrate in 50% ethanol. The absorbance of crystal violet is proportional to the cell number and was determined at 590 nm with a FLUOstar Omega microplate reader (BMG Labtech).
Each compound was tested at 6 doses: 100 nM, 500 nM, 1 μM, 2 μM, 5 μM and 10 μM. In order to ensure their solubility in the cell culture media, DMSO was used as a co-solvent, and to provide comparability between all samples the volume of DMSO was adjusted to obtain its final concentration as 1% in the cell culture media for all the compounds at all concentrations tested.
Results presented in Table 4 below are expressed as a fold growth relative to the control growth of the cells treated only with a co-solvent (1% DMSO), and are represented as a mean value from triplicates coming from a representative experiment.

[3] = 100 nM, 390 nm (75 ms every 15 s)
[4] = 500 nM, 390 nm (75 ms every 15 s)
[5] = 1 μM, 390 nm (75 ms every 15 s)
[6] = 2 μM, 390 nm (75 ms every 15 s)
[7] = 5 μM, 390 nm (75 ms every 15 s)
[8] = 10 μM, 390 nm (75 ms every 15 s)

SMILES | εE(λstrong) [1] | λiso [1] | λstrong [1] | τ, reversion time [2] | mean fold growth (HeLa cells; [3]) | mean fold growth (HeLa cells; 100 nM, Dark) | mean fold growth (HeLa cells; [4]) | mean fold growth (HeLa cells; 500 nM, Dark) | mean fold growth (HeLa cells; [5]) | mean fold growth (HeLa cells; 1 μM, Dark) | mean fold growth (HeLa cells; [6]) | mean fold growth (HeLa cells; 2 μM, Dark) | mean fold growth (HeLa cells; [7]) | mean fold growth (HeLa cells; 5 μM, Dark) | mean fold growth (HeLa cells; [8]) | mean fold growth (HeLa cells; 10 μM, Dark)
COc1ccc(N=Nc2cc(OC)c(OC)c(OC)c2)cc1N [I.2, 2-methoxy-5-((3,4,5-trimethoxyphenyl)diazenyl)aniline] | 11400 M⁻¹ cm⁻¹ | 470 nm | 365 nm | 0.75 min | 1.10 fold | 0.97 fold | 0.83 fold | 0.90 fold | 0.50 fold | 0.89 fold | 0.47 fold | 0.81 fold | 0.32 fold | 0.86 fold | 0.34 fold | 0.70 fold
COc1ccc(N=Nc2cc(OC)c(OC)c(OC)c2)c(F)c1 [I.4, 1-(2-fluoro-4-methoxyphenyl)-2-(3,4,5-trimethoxyphenyl)diazene] | 19804 M⁻¹ cm⁻¹ | 455 nm | 365 nm | 119 min | 0.98 fold | 0.93 fold | 0.78 fold | 0.93 fold | 0.53 fold | 0.89 fold | 0.48 fold | 0.94 fold | 0.44 fold | 0.94 fold | 0.36 fold | 0.78 fold
COc1ccc(N=Nc2cc(OC)c(OC)c(OC)c2)cc1F [I.3, 1-(3-fluoro-4-methoxyphenyl)-2-(3,4,5-trimethoxyphenyl)diazene] | 13300 M⁻¹ cm⁻¹ | 445 nm | 365 nm | 61 min | 0.93 fold | 1.03 fold | 0.88 fold | 1.00 fold | 0.82 fold | 0.95 fold | 0.62 fold | 0.90 fold | 0.39 fold | 0.96 fold | 0.47 fold | 0.99 fold

From patent US20170051149A1, “AZOARYLS AS REVERSIBLY MODULATABLE TUBULIN INHIBITORS” (ECOLE NORMALE SUPERIEURE DE LYON, priority 2014, published 2017)
